Structures are written as SMILES. In brackets after ≈: the same amount, converted by molar mass. Like-named read-outs stand apart in the source and are kept apart here.

For series [1], the system named is mitochondrial protein synthesis vs H37Rv M. tuberculosis. Nature of the series: MPS selectivity index (MPS IC50 / MIC H37Rv).
Another series concerns M.tb H37Rv. Nature of the series: Broth microdilution MIC with Alamar blue endpoint (MABA), M.tb H37Rv. The class given is cell-based. Particulars: Mycobacterium tuberculosis, read-out: MIC (H37Rv). A general note: Broth dilution looks for growth in wells or tubes with falling amounts of substance.
Series [2] has as its system human hepatocyte/liver (HepG2; ATCC #HB8065) cells. The experiment in a line: In vitro cytotoxicity (PrestoBlue cell viability), HepG2 cells. Particulars: HepG2, 72 h, read-out: Cell viability IC50, HepG2.
Experimental: (§1) Data is reported out as the full cell viability curve, as well as a calculation of the actual IC50 value for each compound.
(§2) Adherent cells were grown to ˜80% confluency. […] The cell density was determined using a hemocytometer.
(§3) These compounds were provided as sterile aqueous solutions of HCl salts with a concentration of 5 mg/ml. For making dilutions, each drug stock was warmed to room temperature, vortexed and was visually inspected for precipitation. If solid drug was present, the stock was heated on a 60° C. water bath and then allowed to cool to near room temperature. Based on the treatment concentrations, 20× working stocks were made by serial dilution.
(§4) At the end of the compound incubation period, replace the media in each well with 100 μl of 1× PrestoBlue Cell Viability Reagent (ThermoFisher Cat #A13261). Incubate the plate at 37° C. in a humidified incubator with 5% CO2 30 min to 2 h. […] Read fluorescence with 560 nm excitation and 590 nm emission using SpectraMax M5 plate reader (Molecular Devices). Correct background by subtracting the RFU of the control containing only the culture medium (background control well) from all sample readings. Calculate the percentage of cytotoxicity using the formula below:
(§5) The IC50 was determined using GraphPad Prism using the following formula:
In series [3] the test system is methicillin resistant Staphylococcus aureus (MRSA) 880 NR-49120. Nature of the series: MIC against MRSA strain 880 NR-49120. Particulars: read-out: MRSA MIC, strain 880 NR-49120.
Series [4] relates to African green monkey kidney (Vero; ATCC #CCL81) cells. The experiment in a line: In vitro cytotoxicity (PrestoBlue cell viability), Vero cells. Conditions: Chlorocebus sabaeus, 72 h, read-out: Cell viability IC50, VERO.
Experimental: as §1, §2, §3, §4, §5
The subject of series [5] is mitochondrial protein synthesis (COX-1/SDH-A) in H9C2 rat heart myoblast cells. The experiment in a line: Inhibition of mitochondrial protein synthesis (MitoBiogenesis in-cell ELISA, COX-1/SDH-A). Particulars: H9c2, 120 h, read-out: MPS IC50. (In general: In an ELISA, binding on a coated surface is turned into a signal by an enzyme label.)
Experimental: Inhibition of mitochondrial protein synthesis was determined using a colorimetric MitoBiogenesis™ in-cell ELISA kit from AbCam (Catalog #ab11021), as per the manufacturer's instructions. […] The levels of two mitochondrial proteins were measured simultaneously, including the mitochondrial DNA-encoded subunit I of Complex IV (COX-1) and the nuclear DNA-encoded 70 kDa subunit of Complex II (SDH-A). The H9C2 rat BDIX heart myoblast cell line was used in these studies in a 384 well plate assay format. Cells were grown in DMEM media with 10% FBS and 1×Glutamine at 37° C. and 5% CO2. […] Ten concentrations of each compound, starting at a high concentration of 200 μM and including nine 3-fold dilutions and one replicate per condition, were added to the cells in 2.5 μl and incubated with the cells for five days at 37° C. and 5% CO2.
COX-I and SDH-A signals were plotted as a ratio of COX-1/SDH-A against concentration of each compound, and the IC50 were calculated for each of the 9 investigational compounds and two controls.
Series [6] concerns methicillin resistant Staphylococcus aureus (MRSA) ATCC BAA-1556. The experiment in a line: MIC against MRSA strain ATCC BAA-1556. Particulars: ATCCBAA1556|MRSA.
Series [7] has as its system methicillin resistant Staphylococcus aureus (MRSA) ATCC 43300. Nature of the series: MIC against MRSA strain ATCC 43300. Conditions: read-out: MRSA MIC, strain ATCC 43300.
A short description of series [8]: Liposome loading: encapsulated drug-to-lipid ratio and encapsulation efficiency. Particulars: for maximum drug load: HSPC/Chol 3:2, 0.5 mol % PEG-DSG (Example 14). The class given is physicochemical. How it is done:
1. The lipid components (phospholipid (PhL), cholesterol, and optionally—a PEG-lipid derivative and/or a lipid fluorescent label were combined in an amount of 100% ethanol equal to one-tenth of a volume (V) calculated to obtain lipid suspension with about 60 mM phospholipid and stirred at the temperature of 65-68° C. until complete dissolution of the lipids.
2. The ethanolic lipid solution was combined with volume V of the trapping agent solution (0.25-0.5 M ammonium sulfate or 1 N triethylammonium sucrose octasulfate) upon stirring at 65-68° C. until a uniform suspension was obtained.
3. The lipid suspension was extruded at least three times through a stack of track-etched polycarbonate membranes, typically, two or four membranes with the nominal pore size of 100 nm and one with the nominal pore size 200 nm (Whatman Nuclepore, USA), using a thermobarrel extruder (Lipex, Canada) at 65-68° C., at the pressure of 400-450 psi. When two 100-nm membranes were used in a 100-ml Lipex extruder, the extrusion pressure was typically 260-300 psi. The resulting liposomes have Z-average particle size (diameter) Xz between about 80 and about 130 nm, and PDI less than 0.1.
5. An aliquot of the extruded, filtered liposome suspension so made was chromatographed on a gravity-fed Sepharose CL-4B size exclusion column (eluent-Type 1 water), to purify the liposomes from extraliposomal trapping agent. The purified liposomes were collected near the void volume fraction of the column. For a scale-up studies, this step was performed using a tangential flow filtration (TFF) on a hollow fiber cartridge (Repligen Spectrum MicroKros PS or mPES membrane with MWCO of 500 KDa) effecting 8-10 volume exchanges (or until the conductivity of the liposome suspension dropped below 200 μS/cm) with Type 1 or USP “Water for injection” endotoxin-free water.
6. The lipid concentration in a purified extruded liposome preparation was determined using HPLC with UV detection, by measuring the concentration of cholesterol and correcting for the known phospholipid/cholesterol molar ratio. Alternatively, a spectrophotometric blue phosphomolybdate method was used to directly quantify the phospholipid content.
7. The drug was dissolved in Type 1 or endotoxin-free pure water in the form of a hydrochloric acid salt (e.g., AKG-3 and AKG-5 were used as monohydrochloride, AKG-28 and AKG-29 were used as dihydrochloride) at the concentration of 5-20 mg/ml of the drug. To the drug prepared in free base form (e.g., AKG-16, AKG-38), an equivalent amount of HCl was added. If necessary, pH of the solution was brought between pH 2.5-5.5, using 1 N NaOH, HCL, or tris(hydroxymethyl)aminomethane (Tris)-base solution, and the solution was filtered through a 0.2-micron PES filter under positive pressure. When necessary, the drug concentration in the stock solution so made was verified by HPLC with UV detection at 305 nm.
8. Purified liposomes of step 5 and the drug stock solution were combined in the presence of an osmotic agent (typically dextrose) and water in the amounts necessary to provide a desired drug-to-phospholipid (DL) ratio, the drug concentration in the range 1.5-3.3 mg/ml, at the osmolality equal to the measured osmolality of the trapping agent solution of step 2. Optionally, a buffer at a desired pH (typically pH 4 to pH 7) was added. In some instances, the amount of added osmotic agent (e.g., dextrose at about 45 g/L) provided osmolality less that the measured osmolality of the trapping agent solution, and the loading was effected at 6-8 mg/ml of the drug.
9. The drug-liposome mixture was incubated with constant agitation at 65-68° C. for about 15-20 min and quickly chilled on ice. After 5-10 min, the mixture was allowed to reach ambient temperature an adjusted to 0.1M NaCl by adding a calculated amount of 3 M NaCl stock solution.
10. […] The liposome fractions were collected near the column void volume. […]

The format of series [9] is physicochemical. How it is done:
To the resulting cake or syrup, water was added typically to the final 10 mg/ml, and complete dissolution was observed. […] Aqueous solubility of the compounds of the present disclosure is illustrated by the following observations of obtaining visually clear solutions: […]

A further series deals with M. tuberculosis Erdman. Particulars: eight weeks, Balb/c and C3HeB/FeJ mice; cited from earlier work.
The conditions of series [10]: male, Sprague-Dawley, rat, in vivo, po, 50 mg/kg.
Experimental: For plasma drug measurements, 0.5 ml blood was collected in lithium heparin tubes at 5 min, 15 min, 1 h, 3 h, 6 h, 24 h, 48 h, and 72 h. The samples were centrifuged and the resultant plasma was separated and transferred to duplicate clear polypropylene tubes, frozen immediately over dry ice, and stored at −80° C. until analysis. The plasma concentration in rats was determined by HPLC. Non-compartment PK analyses were performed using Phoenix WinNonlin (Version 7.0).
The test system of series [11] is methicillin resistant Staphylococcus aureus (MRSA) ATCC BAA-1556. Particulars: cited from earlier work.

Take `CN(C)CCCn1nnc(-c2ccc(-c3ccc(N4C[C@H](CN)OC4=O)cc3F)cn2)n1.Cl` (stereo in doubt) [AKG-30]: the “SI-MPS MPS/H37” value in series [1] is reported as 2.02. Further, the MIC in the series on M.tb H37Rv was 0.125 µg/mL; in series [3], greater than 50 µg/mL; in [6] (read-out: MIC against the three MRSA strains) it was greater than 50 µg/mL; in series [6] (read-out: MRSA MIC, strain ATCC BAA-1556) it was greater than 50 µg/mL; in series [7], greater than 50 µg/mL. In addition, the results for the IC50 in series [2], in series [4] and in [5] were 18.9 µg/mL, 110 µg/mL and 0.252 µg/mL, respectively.

For `CC(=O)NC[C@H]1CN(c2ccc(-c3ccc(-c4nnn(CCN(C)C)n4)nc3)c(F)c2)C(=O)O1` [AKG-38], the IC50 in series [2] was 97 µg/mL (≈ 207 µM); in series [4], no less than 395 µg/mL; in series [5] it was 0.041 µg/mL (≈ 0.0875 µM). In addition, the maximum drug load in [8] (0.5 M AS) is on record as 818-842 g/mol PhL; in series [8] (1 N TEA-SOS), 989 g/mol PhL. Besides, the drug load in [8] (30 mol % cholesterol, 5 mol % PEG-DSG, 1 N TEA-SOS) is given as 462.4 g/mol PhL. Also, the “Concentration % (w/w) of free base, visually clear solution” value in [9] is on record as 7.1 % (w/w).

Turning to `CC(=O)NC[C@H]1CN(c2ccc(N3CCOCC3)c(F)c2)C(=O)O1` [Linezolid], in the series on M. tuberculosis Erdman, the “log 10 CFU counts, linezolid monotherapy (Lanoix et al.)” value is on record as 4-6 log 10 CFU. Also, the AUC0-last/Dose in series [10] is 5.64 [hr*μg/mL]/[mg/kg].

Turning to `Cn1nnc(-c2ccc(-c3ccc(N4C[C@H](CO)OC4=O)cc3F)cn2)n1` [Tedizolid, reference compound], in series [1], the “SI-MPS MPS/H37” value is on record as 0.57. Further, in series [11], the “MIC described in U.S. Pat. No. 7,816,379” value is 0.5 µg/mL (≈ 1.35 µM).

The MIC is the lowest concentration that inhibits growth of the organism. Usually IC50 stands for the concentration that inhibits the measured activity by half.

The values are drawn from patent publication US20260083674A1, “OXAZOLIDINONE LIPOSOME COMPOSITIONS” (priority 2021, published 2026).
